Molecules are shown by their SMILES. Values joined by “and” are separate entries in the source; they are usually repeats but may differ in a detail not shown here. Equal entries are not always repeated. Inconclusive results and toxic doses are left out.

In the assay the test system is P388 leukemia ip, CD2F1 mice, survival T/C. Briefly: NCI In Vivo Anticancer Drug Screen. Data for tumor model P388 Leukemia (intraperitoneal) in CD2F1 (CDF1) mice. The note with it: endpoint: median survival time, higher = longer survival. Summed up: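 Mice carrying the transplanted tumor received test compound or vehicle. Survival was recorded in each group, and the value is the treated-group measurement divided by that of the vehicle-treated control group.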

[1] abbreviates: dose: 50.0 mg/kg/injection, schedule: Q01DX005 (ip), vehicle: saline with Tween-80.
Setting [2] is: dose: 100.0 mg/kg/injection, schedule: Q01DX005 (ip), vehicle: saline with Tween-80.
Where [3] appears, read: dose: 200.0 mg/kg/injection, schedule: Q01DX005 (ip), vehicle: saline with Tween-80.
Where [4] appears, read: dose: 25.0 mg/kg/injection, schedule: Q01DX009 (ip), vehicle: Klucel (hydroxypropylcellulose) (HPC).
Where [5] appears, read: dose: 60.0 mg/kg/injection, schedule: Q01DX005 (ip), vehicle: saline with Tween-80.
The mark [6] stands for this setting: dose: 120.0 mg/kg/injection, schedule: Q01DX005 (ip), vehicle: saline with Tween-80.
Where [7] appears, read: dose: 240.0 mg/kg/injection, schedule: Q01DX005 (ip), vehicle: saline with Tween-80.
The mark [8] stands for this setting: dose: 60.0 mg/kg/injection, schedule: Q01DX005 (ip), vehicle: Klucel (hydroxypropylcellulose) (HPC).

`COc1ccc2c(c1)OC(=O)C(S(=O)(=O)c1ccccc1)C2` (stereo not given): the T/C reads like this: under setting [1], 102 % of control; under setting [2], 96 % of control; under setting [3], 101 % of control.
As for `O=C1NC(=O)c2cc(C(F)(F)F)ccc21`, the T/C runs as follows: (dose: 3.0 mg/kg/injection, schedule: Q01DX009 (ip), vehicle: saline with Tween-80) 95 % of control; (dose: 6.0 mg/kg/injection, schedule: Q01DX009 (ip), vehicle: saline with Tween-80) 104 % of control; (dose: 12.0 mg/kg/injection, schedule: Q01DX009 (ip), vehicle: saline with Tween-80) 90 % of control.
As to `COC1=C(C)C(=O)C2=C(C1=O)[C@@H]1[C@@H]3Cc4c(OC(=O)CO)c(C)c(OC)c(O)c4[C@H](CNC(=O)C(C)=O)N3[C@@H](C#N)[C@H](C2)N1C`, the T/C by setting is: (dose: 0.63 mg/kg/injection, schedule: Q01DX005 (ip), vehicle: Klucel (hydroxypropylcellulose) (HPC)) 106 % of control; (dose: 1.25 mg/kg/injection, schedule: Q01DX005 (ip), vehicle: Klucel (hydroxypropylcellulose) (HPC)) 115 % of control; (dose: 2.25 mg/kg/injection, schedule: Q01DX005 (ip), vehicle: Klucel (hydroxypropylcellulose) (HPC)) 120 % of control; (dose: 2.5 mg/kg/injection, schedule: Q01DX005 (ip), vehicle: Klucel (hydroxypropylcellulose) (HPC)) 115 % of control; (dose: 625.0 micrograms/kg/injection, schedule: Q01DX005 (ip), vehicle: Klucel (hydroxypropylcellulose) (HPC)) 103 % of control; (dose: 1250.0 micrograms/kg/injection, schedule: Q01DX005 (ip), vehicle: Klucel (hydroxypropylcellulose) (HPC)) 110 % of control. Moreover, the T/C is 116 % of control (dose: 2500.0 micrograms/kg/injection, schedule: Q01DX005 (ip), vehicle: Klucel (hydroxypropylcellulose) (HPC)) and 118 % of control (dose: 5000.0 micrograms/kg/injection, schedule: Q01DX005 (ip), vehicle: Klucel (hydroxypropylcellulose) (HPC)).
For `CN(C)C1=C(Cl)C(=O)c2ccccc2C1=O`, the T/C is 100 % of control under setting [4]; 100 % of control (dose: 50.0 mg/kg/injection, schedule: Q01DX009 (ip), vehicle: Klucel (hydroxypropylcellulose) (HPC)); 97 % of control (dose: 100.0 mg/kg/injection, schedule: Q01DX009 (ip), vehicle: Klucel (hydroxypropylcellulose) (HPC)).
On to `[Se]=[Hf]=[Se]`, for which the T/C by setting is: under setting [5], 97 % of control; under setting [6], 97 % of control; under setting [7], 94 % of control.
Take `COc1cccc2c1C(=O)c1c(O)c3c(c(O)c1C2=O)C[C@@](O)(/C(C)=N/NC(=O)c1ccc(-c2ccccc2)cc1)C[C@@H]3OC1CC(N)C(O)C(C)O1` (stereo not given in full): the T/C reads like this: (dose: 0.12 mg/kg/injection, schedule: Q01DX009 (ip), vehicle: water) 107 % of control; (dose: 0.5 mg/kg/injection, schedule: Q01DX009 (ip), vehicle: water) 151 % of control; (dose: 1.0 mg/kg/injection, schedule: Q01DX009 (ip), vehicle: water) 157 % of control; (dose: 2.0 mg/kg/injection, schedule: Q01DX009 (ip), vehicle: water) 163 % of control and 169 % of control; (dose: 3.13 mg/kg/injection, schedule: Q01DX009 (ip), vehicle: water) 192 % of control; (dose: 4.0 mg/kg/injection, schedule: Q01DX009 (ip), vehicle: water) 190 % of control. The T/C was 106 % of control (dose: 6.0 mg/kg/injection, schedule: Q04DX003 (ip), vehicle: water); 151 % of control (dose: 6.25 mg/kg/injection, schedule: Q01DX001 (ip), vehicle: water); 109 % of control (dose: 6.25 mg/kg/injection, schedule: Q01DX009 (ip), vehicle: water); 98 % of control and 91 % of control (dose: 8.0 mg/kg/injection, schedule: Q01DX009 (ip), vehicle: water); 163 % of control (dose: 12.5 mg/kg/injection, schedule: Q01DX001 (ip), vehicle: water); 165 % of control (dose: 24.0 mg/kg/injection, schedule: Q04DX003 (ip), vehicle: water). Also, the T/C runs as follows: (dose: 25.0 mg/kg/injection, schedule: Q01DX001 (ip), vehicle: water) 116 % of control; (dose: 96.0 mg/kg/injection, schedule: Q04DX003 (ip), vehicle: water) 98 % of control.
In the case of `CNC(=O)c1n[nH]c(C)c1N`, the T/C was 94 % of control (dose: 12.5 mg/kg/injection, schedule: Q04DX003 (ip), vehicle: water); 100 % of control (dose: 25.0 mg/kg/injection, schedule: Q04DX003 (ip), vehicle: water); 103 % of control (dose: 50.0 mg/kg/injection, schedule: Q04DX003 (ip), vehicle: water); 103 % of control (dose: 100.0 mg/kg/injection, schedule: Q04DX003 (ip), vehicle: water); 99 % of control (dose: 200.0 mg/kg/injection, schedule: Q04DX003 (ip), vehicle: water).
In the case of `c1ccc2c(OCC3CO3)c3ccccc3nc2c1` (stereo not given), the T/C under setting [1] was 118 % of control, the T/C under setting [2] is 108 % of control and the T/C under setting [3] was 102 % of control.
`C=CC12CN(C)C3C4COC(CC41)C1(C(=O)Nc4ccccc41)C32` (stereo not given): the T/C is, setting by setting: (dose: 1.25 mg/kg/injection, schedule: Q01DX009 (ip), vehicle: saline) 103 % of control; (dose: 2.5 mg/kg/injection, schedule: Q01DX009 (ip), vehicle: saline) 88 % of control; (dose: 5.0 mg/kg/injection, schedule: Q01DX009 (ip), vehicle: saline) 95 % of control; (dose: 7.5 mg/kg/injection, schedule: Q01DX005 (ip), vehicle: Klucel (hydroxypropylcellulose) (HPC)) 98 % of control; (dose: 10.0 mg/kg/injection, schedule: Q01DX009 (ip), vehicle: saline) 106 % of control; (dose: 15.0 mg/kg/injection, schedule: Q01DX005 (ip), vehicle: Klucel (hydroxypropylcellulose) (HPC)) 95 % of control. Further, the T/C runs as follows: (dose: 30.0 mg/kg/injection, schedule: Q01DX005 (ip), vehicle: Klucel (hydroxypropylcellulose) (HPC)) 98 % of control; under setting [8], 102 % of control.
As for `C#CC(C)(C)Oc1ccc2c(=O)c(-c3ccc(OC)c(OC)c3)coc2c1`, the T/C by setting is: under setting [5], 90 % of control; under setting [6], 92 % of control; under setting [7], 89 % of control.
As to `CCC12CCCN3CCc4c(n(c5ccc(Br)cc45)C(=O)CC1)C32` (stereo not given), the T/C reads like this: (dose: 12.5 mg/kg/injection, schedule: Q01DX005 (ip), vehicle: saline with Tween-80) 99 % of control; (dose: 25.0 mg/kg/injection, schedule: Q01DX005 (ip), vehicle: saline with Tween-80) 90 % of control; under setting [1], 88 % of control and 91 % of control.
In the case of `COC(=O)Nc1cn2ccsc2n1`, the T/C is, setting by setting: under setting [1], 105 % of control; under setting [2], 102 % of control; under setting [3], 105 % of control.
Regarding `Nc1nnc(SCCCCCCSc2nnc(N)s2)s1`, the T/C reads like this: under setting [1], 86 % of control; under setting [2], 86 % of control.
`N#CC(C#N)=C/C=C/c1cccc([N+](=O)[O-])c1`: the T/C was 114 % of control (dose: 3.12 mg/kg/injection, schedule: Q01DX009 (ip), vehicle: Klucel (hydroxypropylcellulose) (HPC)); 123 % of control (dose: 6.25 mg/kg/injection, schedule: Q01DX009 (ip), vehicle: Klucel (hydroxypropylcellulose) (HPC)); 118 % of control (dose: 8.2 mg/kg/injection, schedule: Q01DX009 (ip), vehicle: Klucel (hydroxypropylcellulose) (HPC)); 100 % of control under setting [4].
`C1CCC(N2CSC3CCCCC32)CC1` (stereo not given): the T/C runs as follows: under setting [8], 95 % of control; (dose: 120.0 mg/kg/injection, schedule: Q01DX005 (ip), vehicle: Klucel (hydroxypropylcellulose) (HPC)) 97 % of control.
In the case of `COc1cc([N+](=O)[O-])c(OC)cc1C(C)=O`, the T/C is 96 % of control (dose: 50.0 mg/kg/injection, schedule: Q01DX005 (ip), vehicle: Klucel (hydroxypropylcellulose) (HPC)); 93 % of control (dose: 100.0 mg/kg/injection, schedule: Q01DX005 (ip), vehicle: Klucel (hydroxypropylcellulose) (HPC)); 100 % of control (dose: 200.0 mg/kg/injection, schedule: Q01DX005 (ip), vehicle: Klucel (hydroxypropylcellulose) (HPC)).
For `OCCN(CCO)c1ncnc2nc[nH]c12`, the T/C is, setting by setting: under setting [1], 88 % of control; under setting [2], 96 % of control; under setting [3], 98 % of control.
For the compound `CCC/C(=N/NC(N)=O)C(OC)OC`, the T/C reads like this: (dose: 37.5 mg/kg/injection, schedule: Q01DX009 (ip), vehicle: saline) 92 % of control; (dose: 75.0 mg/kg/injection, schedule: Q01DX009 (ip), vehicle: saline) 90 % of control.

For the origin of these results see PubChem BioAssay AID330 (DTP/NCI, 2004).
